From US20260250320A1, “LIPIDATED PEPTIDE INHIBITORS OF INTERLEUKIN-23 RECEPTOR” (Janssen Pharmaceutica NV, priority 2023, published 2026)
*1 amine or outer side, *2 acyl side, *3 side chain or, on linkers, in order; H or OH if unused. Where a SMILES comes first, the peptide text is derived from it. Bridges are numbered along the chain shown (N, C = ends). Side-chain parts run from the residue outwards. [ ]: non-standard residue; d: D form. The star is where a group is joined. ξ: configuration not given here. X16 = CC(C)(S[*:2])[C@H](CC(=O)CCOCCOCC[N+](C)(C)C)C(=O)[*:1]; Me3N+(CH2)2O(CH2)2O(CH2)2CO = C[N+](C)(C)CCOCCOCCC(=O)*; PEG12 = NCCOCCOCCOCCOCCOCCOCCOCCOCCOCCOCCOCCOCCC(=O)O; CH2CH2OCH2CH2OCH2CH2NMe3+ = C[N+](C)(C)CCOCCOCC*; Trp(7-Me) = Cc1cccc2c(C[C@H](N)C(=O)O)c[nH]c12; C20 diacid = O=C(O)CCCCCCCCCCCCCCCCCCC(=O)*; C18 diacid = O=C(O)CCCCCCCCCCCCCCCCC(=O)*; γGlu = O=C(O)[C@H](CCC(=O)[*:2])N[*:1]; 2Nal = N[C@@H](Cc1ccc2ccccc2c1)C(=O)O; AEF = NCCOc1ccc(C[C@H](N)C(=O)O)cc1; X2 = C[N+](C)(C)C[C@@H](CC(=O)O)N*; 3Pal = N[C@@H](Cc1cccnc1)C(=O)O; Lys(Me) = CNCCCC[C@H](N)C(=O)O; NMeK = CN[C@@H](CCCCN)C(=O)O; Pen = CC(C)(S)[C@H](N)C(=O)O; Suc = O=C(CCC(=O)[*:2])[*:1]; Thp = NC1(C(=O)O)CCOCC1; X1 = C[N+](C)(C)CCCCC*; ξN = NC(=O)CC(N)C(=O)O; AEEA = NCCOCCOCC(=O)O; Sar = CNCC(=O)O

Key:
IL-23R = target: T1, IL-23R (Homo sapiens, UniProt Q5VWK5); assay: IL23R Reporter Assay; assay type: cell-based; details: HEK293 cells containing IL-23R, IL-12Rβ1 and STAT-inducible firefly luciferase reporter; 10 ng/mL IL-23 (EC90); 5 h
T1 construct: HEK293 cells containing IL-23R, IL-12Rβ1 and a firefly luciferase reporter gene driven by a STAT-inducible promoter (Promega); host or cells: HEK293
T1 sequence (Q5VWK5 24-629): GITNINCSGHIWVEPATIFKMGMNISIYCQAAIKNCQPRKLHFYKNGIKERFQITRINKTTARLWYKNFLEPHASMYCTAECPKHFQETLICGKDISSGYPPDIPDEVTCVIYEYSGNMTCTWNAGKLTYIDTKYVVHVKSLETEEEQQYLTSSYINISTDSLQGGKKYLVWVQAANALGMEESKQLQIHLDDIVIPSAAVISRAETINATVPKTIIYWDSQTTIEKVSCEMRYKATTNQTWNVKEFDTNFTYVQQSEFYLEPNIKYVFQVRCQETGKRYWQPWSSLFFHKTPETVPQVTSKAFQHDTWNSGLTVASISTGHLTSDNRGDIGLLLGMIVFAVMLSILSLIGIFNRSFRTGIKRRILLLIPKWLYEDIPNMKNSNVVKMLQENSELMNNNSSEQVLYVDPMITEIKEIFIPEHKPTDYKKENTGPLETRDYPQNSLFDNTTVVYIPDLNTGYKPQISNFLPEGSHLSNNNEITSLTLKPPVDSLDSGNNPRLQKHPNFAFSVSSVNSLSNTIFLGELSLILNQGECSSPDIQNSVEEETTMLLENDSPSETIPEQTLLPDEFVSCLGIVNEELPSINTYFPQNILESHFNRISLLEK
In short: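 IC50 values were fitted with a 4-parameter Hill equation to luciferase signal, scaled between IL-23-only wells (0% inhibition) and 30 μM reference inhibitor (100%). The readout was a STAT-inducible reporter in IL-23R/IL-12Rβ1 HEK293 cells, stimulated with added 10 ng/mL IL-23 (EC90) for 5 h at 37° C and developed with BioGlo.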

[1] = system: IL-23-stimulated phosphorylated STAT3 in peripheral blood mononuclear cells (PBMCs); assay: PBMC pSTAT3 Assay; assay type: cell-based; details: PBMCs from healthy donors; 30 min preincubation with peptide; IL-23 5 ng/mL for 30 min; phospho-STAT3 by MSD
In short: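 Phospho-STAT3 quantified by Meso Scale assay in lysates of PBMCs exposed to IL-23 (5 ng/mL, 30 min, 37 °C) after 30 min peptide pretreatment. Cells were cryopreserved donor PBMCs activated 4 days with anti-CD3 plus IL-1β (100 ng/mL) and starved ~4 h; IC50 reported.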

Row | Structure (SMILES) | IC50 (IL-23R) | IC50 [1]
1 | Cc1cccc2c(C[C@@H]3NC(=O)[C@H]([C@@H](C)O)NC(=O)[C@H](CC(N)=O)NC(=O)[C@@H](NC(=O)[C@@H](CCCNC(=N)N)CC(=O)COCCOCCNC(=O)COCCOCCNC(=O)CC[C@H](NC(=O)CCCCCCCCCCCCCCCCC(=O)O)C(=O)O)C(C)(C)SSC(C)(C)[C@@H](C(=O)N[C@@H](Cc4ccc(OCCN)cc4)C(=O)N[C@@H](Cc4ccc5ccccc5c4)C(=O)NC4(C(=O)N[C@@H](CCC(=O)O)C(=O)N[C@@H](CC(N)=O)C(=O)N[C@@H](Cc5cccnc5)C(=O)N(C)CC(N)=O)CCOCC4)NC(=O)[C@H](CCCCN(C)C(=O)CCCCCOCC[N+](C)(C)C)NC3=O)c[nH]c12 [compound 84, HOC18gEPEG2PEG2CO-r-Pen(3)-N-T-7MeW-K(NMecPEG3a)-Pen(3)-AEF-2Nal-THP-E-N-3Pya-Sar-CONH2] | < 50 nM | < 0.5 nM
2 | CC(=O)NCCCC[C@@H]1NC(=O)[C@H](Cc2c[nH]c3c(C)cccc23)NC(=O)[C@H]([C@@H](C)O)NC(=O)[C@H](CC(N)=O)NC(=O)[C@@H](NC(=O)[C@H](CCCCNC(=O)COCCOCCNC(=O)COCCOCCNC(=O)CC[C@H](NC(=O)CCCCCCCCCCCCCCCCC(=O)O)C(=O)O)NC(C)=O)C(C)(C)SSC(C)(C)[C@@H](C(=O)N[C@@H](Cc2ccc(OCCCCC[N+](C)(C)C)cc2)C(=O)N[C@@H](Cc2ccc3ccccc3c2)C(=O)NC2(C(=O)N[C@@H](CCCCNC(C)=O)C(=O)NC(CC(N)=O)C(=O)N[C@@H](Cc3cccnc3)C(=O)N(C)CC(N)=O)CCOCC2)NC1=O (stereo partly drawn) [compound 62, MeCO-K(PEG2PEG2gEC18OH)-Pen(3)-N-T-7MeW-K(Ac)-Pen(3)-TMAPF-2Nal-THP-K(Ac)-3-Pya-Sar-CONH2] (Ac-K([AEEA-AEEA-γGlu-C18 diacid])[Pen]NT[Trp(7-Me)]K(Ac)[Pen]Y(X1)[2Nal][Thp]K(Ac)[ξN][3Pal][Sar]-NH2; disulfide 2-7) | < 50 nM | < 0.5 nM
3 | CC(=O)N(C)CCCC[C@@H]1NC(=O)[C@H](Cc2c[nH]c3c(C)cccc23)NC(=O)[C@H]([C@@H](C)O)NC(=O)[C@H](CC(=O)N(C)C)NC(=O)[C@@H](CC(=O)CCOCCOCC[N+](C)(C)C)C(C)(C)SSC(C)(C)[C@@H](C(=O)N[C@@H](Cc2ccc(OCCOCCOCC[N+](C)(C)C)cc2)C(=O)N[C@@H](Cc2ccc3ccccc3c2)C(=O)NC2(C(=O)N[C@@H](CCCCN(C)C(C)=O)C(=O)NC(CC(N)=O)C(=O)N[C@@H](Cc3cccnc3)C(=O)N(C)[C@@H](CCCCNC(=O)COCCOCCNC(=O)COCCOCCNC(=O)CC[C@H](NC(=O)CCCCCCCCCCCCCCCCCCC(=O)O)C(=O)O)C(N)=O)CCOCC2)NC1=O (stereo partly shown) [compound 112, cPEG3aCO-Pen(3)-N(N(Me)2)-T-7MeW-K(NMeAc)-Pen(3)-APEG3F-2Nal-THP-K(NMeAc)-N-3Pya-NMeK(PEG2PEG2gEC20OH)-CONH2] (D(NMe2)T[Trp(7-Me)][Lys(Me)](Ac)[Pen]Y(CH2CH2OCH2CH2OCH2CH2NMe3+)[2Nal][Thp][Lys(Me)](Ac)[ξN][3Pal][NMeK]([AEEA-AEEA-γGlu-C20 diacid])-NH2; linker N-5 via X16) | 50 to 500 nM | 0.5 to 5 nM
4 | C=CCOC(=O)CN1CCOc2ccc(cc2)C[C@H](NC(=O)[C@H]2NC(=O)[C@H](CCCCNC(C)=O)NC(=O)[C@H](Cc3c[nH]c4c(C)cccc34)NC(=O)[C@H]([C@@H](C)O)NC(=O)[C@H](CCCCNC(=O)COCCOCCNC(=O)COCCOCCNC(=O)CC[C@H](NC(=O)CCCCCCCCCCCCCCCCCC(=O)O)C(=O)O)NC(=O)[C@@H](NC(=O)CCOCCOCCNC(=O)COCCOCCNC(=O)COCCOCCNC(=O)CC[C@H](NC(=O)CCCCCCCCCCCCCCCCC(=O)O)C(=O)O)C(C)(C)SSC2(C)C)C(=O)N[C@@H](Cc2ccc3ccccc3c2)C(=O)NC2(CCOCC2)C(=O)N[C@@H]1C(=O)N[C@@H](CC(N)=O)C(=O)N[C@@H](Cc1cccnc1)C(=O)N(C)CC(N)=O [compound 24, AEEP(PEG2PEG2gEC18OH)-Pen(3)-K(PEG2PEG2gEC18OH)-T-7MeW-K(Ac)-Pen(3)-AEF-2Nal-THP-E(OAll)-N-3Pya-Sar-CONH2] | 50 to 500 nM | 0.5 to 5 nM
5 | CC(=O)N[C@@H]1C(=O)N[C@@H](CC(N)=O)C(=O)N[C@@H]([C@@H](C)O)C(=O)N[C@@H](Cc2c[nH]c3ccccc23)C(=O)N[C@@H](CCCCNC(=O)CCOCCOCCOCCOCCOCCOCCOCCOCCOCCOCCOCCOCCNC(=O)CC[C@H](NC(=O)CCCCCCCCCCCCCCCCC(=O)O)C(=O)O)C(=O)N[C@H](C(=O)N[C@@H](Cc2ccc(OCCN)cc2)C(=O)N[C@@H](Cc2ccc3ccccc3c2)C(=O)NC2(C(=O)N[C@@H](CCC(=O)O)C(=O)N[C@@H](CC(N)=O)C(=O)N[C@@H](Cc3cccnc3)C(=O)N(C)CC(N)=O)CCOCC2)C(C)(C)SSC1(C)C [compound 96, MeCO-Pen(3)-N-T-7MeW-K(PEG12gEC18OH)-Pen(3)-AEF-2Nal-THP-E-N-3Pya-Sar-CONH2] | < 50 nM | < 0.5 nM
6 | CC(=O)NCCCC[C@@H]1NC(=O)[C@H](Cc2c[nH]c3c(C)cccc23)NC(=O)[C@H]([C@@H](C)O)NC(=O)[C@H](CC(N)=O)NC(=O)[C@@H](NC(=O)[C@@H](CCCNC(=N)N)NC(C)=O)C(C)(C)SSC(C)(C)[C@@H](C(=O)N[C@@H](Cc2ccc(OCCN)cc2)C(=O)N[C@@H](Cc2ccc3ccccc3c2)C(=O)NC2(C(=O)N[C@@H](CCCCNC(=O)CCC(=O)N[C@H](CC(=O)O)C[N+](C)(C)C)C(=O)N[C@@H](CC(N)=O)C(=O)N[C@@H](Cc3cccnc3)C(=O)N(C)CC(=O)N[C@@H](CCCCNC(=O)COCCOCCNC(=O)COCCOCCNC(=O)CC[C@H](NC(=O)CCCCCCCCCCCCCCCCC(=O)O)C(=O)O)C(N)=O)CCOCC2)NC1=O [compound 51, MeCO-r-Pen(3)-N-T-7MeW-K(Ac)-Pen(3)-AEF-2Nal-THP-K(d)-N-3Pya-Sar-K(PEG2PEG2gEC18OH)-CONH2] (Ac-[dR][Pen]NT[Trp(7-Me)]K(Ac)[Pen][AEF][2Nal][Thp]K([Suc-X2])N[3Pal][Sar]K([AEEA-AEEA-γGlu-C18 diacid])-NH2; disulfide 2-7) | ≥ 500 nM | < 0.5 nM
7 | CC(=O)N[C@H](CCCNC(=N)N)C(=O)N[C@@H]1C(=O)N[C@@H](CCCCNC(=O)COCCOCCNC(=O)COCCOCCNC(=O)CC[C@H](NC(=O)CCCCCCCCCCCCCCCCC(=O)O)C(=O)O)C(=O)N[C@@H]([C@@H](C)O)C(=O)N[C@@H](Cc2c[nH]c3c(C)cccc23)C(=O)N[C@@H](CCCCN(C)C(=O)CCOCCOCC[N+](C)(C)C)C(=O)N[C@H](C(=O)N[C@@H](Cc2ccc(OCCN)cc2)C(=O)N[C@@H](Cc2ccc3ccccc3c2)C(=O)NC2(C(=O)N[C@@H](CCC(=O)O)C(=O)N[C@@H](CC(N)=O)C(=O)N[C@@H](Cc3cccnc3)C(=O)N(C)CC(N)=O)CCOCC2)C(C)(C)SSC1(C)C [compound 77, 5cpaCO-Pen(3)-N-T-7MeW-K(Ac)-Pen(3)-AEF-2Nal-THP-K(PEG2PEG2gEC18OH)-N-3Pya-Sar-CONH2] (Ac-[dR][Pen]K([AEEA-AEEA-γGlu-C18 diacid])T[Trp(7-Me)][Lys(Me)](Me3N+(CH2)2O(CH2)2O(CH2)2CO)[Pen][AEF][2Nal][Thp]EN[3Pal][Sar]-NH2; disulfide 2-7) | 50 to 500 nM | < 0.5 nM
8 | CC(=O)NCCCC[C@@H]1NC(=O)[C@H](Cc2c[nH]c3c(C)cccc23)NC(=O)[C@H]([C@@H](C)O)NC(=O)[C@H](CC(N)=O)NC(=O)[C@@H](NC(=O)[C@@H](CCCNC(=N)N)NC(C)=O)C(C)(C)SSC(C)(C)[C@@H](C(=O)N[C@@H](Cc2ccc(OCCCCC[N+](C)(C)C)cc2)C(=O)N[C@@H](Cc2ccc3ccccc3c2)C(=O)NC2(C(=O)N[C@@H](CCCCNC(=O)CCOCCOCCOCCOCCOCCOCCOCCOCCOCCOCCOCCOCCNC(=O)CC[C@H](NC(=O)CCCCCCCCCCCCCCCCC(=O)O)C(=O)O)C(=O)N[C@@H](CC(N)=O)C(=O)N[C@@H](Cc3cccnc3)C(=O)N(C)CC(=O)N(C)C)CCOCC2)NC1=O [compound 123, cPEG3aCO-Pen(3)-N(N(Me)2)-T-7MeW-K(NMeAc)-Pen(3)-TMAPF-2Nal-THP-K(PEG12gEC18OH)-N-3Pya-Sar-CON(Me)2] (Ac-[dR][Pen]NT[Trp(7-Me)]K(Ac)[Pen]Y(X1)[2Nal][Thp]K([PEG12-γGlu-C18 diacid])N[3Pal][Sar]-NMe2; disulfide 2-7) | < 50 nM | < 0.5 nM
